15 molecules from patent US7273882B2, “Aminoacetamide acyl guanidines as β-secretase inhibitors” (priority 2006, dated 2007) can be followed below.

A word on the IC50: it is the midpoint of a concentration-inhibition curve.

Like-named read-outs stand apart in the source and are kept apart here.

The target in the test is T1, BACE1 enzyme (Homo sapiens, UniProt P56817).
T1 construct: was derived from HEK293 cells; endogenous in cells; washed 48,000 x g pellet of the cell homogenate
Kind of test: Radioligand displacement (binding) assay with radiolabeled BACE inhibitor on HEK293-9B.A1 cell homogenate. The text has this:
There are a number of methods by which inhibitors of the BACE enzyme can be identified experimentally. The enzyme can be obtained from membrane samples from natural tissues or cultured cells or can be expressed recombinantly in a host cell by well known methods of molecular biology. The whole enzyme or a portion thereof can be expressed, for example, in bacterial, insect or mammalian cells to obtain a catalytically active enzyme species. The enzymatic activity and/or ligand binding capability of the enzyme can be assessed within these membrane samples, or the enzyme can be purified to varying extents. As an illustrative example, the nucleic acid sequence encoding the pro and catalytic domains of human BACE can be appended on the 5′ end with an untranslated and signal sequence from the gene for acetylcholinesterase, and on the 3′ end with a sequence encoding a poly-histidine tag. This cDNA can then be expressed in Drosophila melanogaster S2 cells in which the signal and pro sequences of the transcribed/translated protein are removed by cellular proteases and the catalytic domain, appended by a C-terminal poly-histidine tag, is secreted out into the cellular medium. The enzyme can then be purified from the culture medium by nickel affinity chromatography by methods well known to those trained in the art [Mallender, W. et al., (2001) “Characterization of recombinant, soluble beta-secretase from an insect cell expression system.” Mol. Pharmacol. 59: 619-626]. Similar strategies for expressing and purifying various forms of BACE in bacterial, mammalian and other cell types would be known to one skilled in the art., A preferred method for determining the potency of a test compound in binding to the BACE enzyme is by monitoring the displacement of a suitable radioligand.
Radioligand displacement assays with a radiolabeled BACE inhibitor (WO 2004 013098, compound 3, where the methoxy group is substituted for C(^3H)3) were carried out using standard methods (Keen, M. (1999) in Receptor Binding Techniques (Walker, J. M. ed) p. 106 Humana Press, Totowa, N.J.). The HEK293-9B.A1 cell line, which overexpresses the BACE1 enzyme, was derived from HEK293 cells (Simmons, N. L. (1990) A cultured human renal epithelioid cell line responsive to vasoactive intestinal peptide. Exp. Physiol. 75:309-19.) by RAGE™ (Harrington, J. J. et al. (2001) Creation of genome-wide protein expression libraries using random activation of gene expression. Nat. Biotechnol. 19:440-5.; U.S. Pat. Nos. 6,410,266 and 6,361,972). T225 flask cultures of HEK293-9B.A1 were grown to 80% confluency in DMEM supplemented with 2 mM L-glutamine, 10 μg/ml penicillin, 10 μg/ml streptomycin, 3 μg/ml puromycin, 100 nM methotrexate, and 10% fetal bovine serum (Invitrogen, Carlsbad, Calif.), harvested, and resuspended at 2×10^8 cells per 10 ml of lysis buffer consisting of 50 mM HEPES pH 7.0 containing a protease inhibitor cocktail of AEBSF 104 μM, aprotinin 80 nM, leupeptin 2 μM, bestatin 4 μM, pepstatin A 1.5 μM, and E-64 1.4 μM (0.1% of protease inhibitor cocktail P8340, Sigma-Aldrich, St. Louis, Mo.) at 4° C. The resuspended cells were homogenized using a Polytron (Brinkman, Westbury, N.Y.) at setting 6 for 10 sec., then centrifuged at 48,000×g for 10 min. The resulting pellet was washed by repeating the resuspension, homogenization and centrifugation steps. The final pellet was resuspended in buffer at 4° C. to yield a total protein concentration of 5 mg/ml, then aliquots were frozen in liquid nitrogen for further storage at −70° C. Immediately before carrying out a binding assay, an aliquot of cell homogenate was thawed and diluted to a concentration of 100 μg/ml in assay buffer consisting of 50 mM HEPES pH 5.0 and 0.1% CHAPSO. […]
(Loss of bound radioactivity is the signal in a displacement assay; it reports binding, not function.)

The mark [1] stands for this setting: radioligand displacement, HEK293-9B.A1 cell homogenate overexpressing BACE1, read-out: Activity Rating (activity based on IC50 values).

T1 sequence (P56817 46-501): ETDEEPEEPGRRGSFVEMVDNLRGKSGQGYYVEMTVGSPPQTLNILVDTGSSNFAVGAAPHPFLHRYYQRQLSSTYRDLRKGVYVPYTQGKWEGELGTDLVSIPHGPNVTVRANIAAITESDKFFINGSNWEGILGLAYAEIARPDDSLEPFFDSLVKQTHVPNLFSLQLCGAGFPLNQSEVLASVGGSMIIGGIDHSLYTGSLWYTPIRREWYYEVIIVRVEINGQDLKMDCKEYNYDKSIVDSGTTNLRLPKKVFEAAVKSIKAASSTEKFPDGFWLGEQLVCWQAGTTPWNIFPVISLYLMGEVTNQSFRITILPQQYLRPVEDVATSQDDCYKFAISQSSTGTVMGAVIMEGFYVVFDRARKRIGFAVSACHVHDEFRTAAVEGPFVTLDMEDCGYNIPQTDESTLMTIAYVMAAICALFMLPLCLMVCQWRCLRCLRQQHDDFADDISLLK

The molecule `Cc1noc(-c2ccccc2)c1C(=O)/N=C(\N)NCc1cc(Cl)c(N)c(Cl)c1` [Example 22] returned an IC50 of 100 to 1000 nM. With `COc1ccc(-c2n[nH]c(C)c2C(=O)N=C(N)NCc2cc(Cl)c(N)c(Cl)c2)cc1` [Example 132], the IC50 lay in the range of 100 to 1000 nM. Same read-out and setting: the result for `COc1ccc(-c2nsc(C)c2C(=O)NC(N)=NCc2cc(C)c(NC(C)=O)c(Cl)c2)cc1` [Example 144] reads less than 100 nM; that for `COc1ccc(-c2noc(C)c2C(=O)/N=C(/N)NCc2cc(Cl)c(N)c(Br)c2)cc1` [Example 148, N-((3-Bromo-4-amino-5-chlorobenzylamino)(amino)methylene)-3-(4-methoxyphenyl)-5-methylisoxazole-4-carboxamide], 100 to 1000 nM. On to `COc1ccc(-c2nsc(C)c2C(=O)/N=C(/N)NCc2cc(Cl)c(N)c(Cl)c2)cc1` [Example 149, N-((4-amino-3,5-dichlorobenzylamino)(amino)methylene)-3-(4-methoxyphenyl)-5-methylisothiazole-4-carboxamide], for which the IC50 is less than 100 nM. Still for that read-out and setting: in the case of `COc1ccc(-c2nsc(C)c2C(=O)/N=C(/N)NCc2cc(Cl)c(N)c(Br)c2)cc1` [Example 150, N-((3-Bromo-4-amino-5-chlorobenzylamino)(amino)methylene)-3-(4-methoxyphenyl)-5-methylisothiazole-4-carboxamide] it was less than 100 nM. Still for that read-out and setting: in the case of `COC/C=C/c1cc(Cl)cc(CN/C(N)=N/C(=O)c2c(-c3ccc(OC)cc3)noc2C)c1` [Example 152, N-((3-chloro-5-((E)-3-methoxyprop-1-enyl)benzylamino)(amino)methylene)-3-(4-methoxyphenyl)-5-methylisoxazole-4-carboxamide] it was 100 to 1000 nM; in that of `COC/C=C/c1cc(CN/C(N)=N/C(=O)c2c(-c3ccc(OC)cc3)noc2C)cc(Cl)c1N` [Example 153, N-((4-amino-3-chloro-5-((E)-3-methoxyprop-1-enyl)benzylamino) (amino)methylene)-3-(4-methoxyphenyl)-5-methylisoxazole-4-carboxamide], less than 100 nM.

On to `COC/C=C/c1cc(CN/C(N)=N/C(=O)c2c(-c3ccc(OC)cc3)nsc2C)cc(Cl)c1N` [Example 154, N-((4-amino-3-chloro-5-((E)-3-methoxyprop-1-enyl)benzylamino) (amino)methylene)-3-(4-methoxyphenyl)-5-methylisothiazole-4-carboxamide], for which the IC50 is less than 100 nM. As for `COc1ccc(-c2noc(C)c2C(=O)N=C(N)NCc2cc(Cl)cc(C=CCCO)c2)cc1` [Example 168], the IC50 lay in the range of 100 to 1000 nM.

`CCOC(=O)NCc1cc(Cl)cc(CN/C(N)=N/C(=O)c2c(-c3ccc(OC)cc3)noc2C)c1` [Example 203] yielded an IC50 of 100 to 1000 nM.

As for `COc1ccc(-c2nsc(C)c2C(=O)/N=C(\N)NCc2cc(Cl)cc(CNC(=O)/C=C/c3ccccc3)c2)cc1` [Example 237, N-(((E)-3-chloro-5-(cinnamamidomethyl)benzylamino)(amino)methylene)-3-(4-methoxyphenyl)-5-methylisothiazole-4-carboxamide], the IC50 is less than 100 nM. With `COc1ccc(-c2nsc(C)c2C(=O)/N=C(\N)NCc2cc(Cl)c(NC(C)=O)c(Cl)c2)cc1` [Example 279, (E)-N-((4-acetamido-3,5-dichlorobenzylamino)(amino)methylene)-3-(4-methoxyphenyl)-5-methylisothiazole-4-carboxamide], the IC50 was less than 100 nM. Turning to `COc1ccc(-c2noc(C)c2C(=O)/N=C(\N)NCc2cc(Cl)c(NC(=O)CN(C)C)c(Cl)c2)cc1` [Example 280, (E)-N-((3,5-dichloro-4-(2-(dimethylamino)acetamido)benzylamino)(amino)methylene)-3-(4-methoxyphenyl)-5-methylisoxazole-4-carboxamide], the IC50 under setting [1] was less than 100 nM. In the case of `COc1ccc(-c2nsc(C)c2C(=O)/N=C(\N)NCc2cc(Cl)c(NC(=O)CN(C)C)c(Cl)c2)cc1` [Example 327], the IC50 under setting [1] was less than 100 nM.
